Measured values: PubChem BioAssay AID220 (DTP/NCI, 2004)
“And” between values parts separate entries of the source, which are not always exact repeats. Identical values can stand only once. Results filed as inconclusive are left out.

Test system: CD8F1 mice, subcutaneous mammary adenocarcinoma, T/C%
Test: NCI In Vivo Anticancer Drug Screen. Data for tumor model Mammary Adenocarcinoma CD8F1 (subcutaneous) in CD8F1
Conditions: higher = larger tumour
Outline: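 Compound-treated versus vehicle-treated mice with transplantable tumors; survival or tumor size compared as T/C.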

[1] = endpoint: median tumor weight (est.), dose: 50.0 mg/kg/injection, schedule: Q07DX005 (ip), vehicle: saline
[2] = endpoint: median tumor weight change, dose: 125.0 mg/kg/injection, schedule: Q01DX001 (ip), vehicle: saline with Tween-80
[3] = endpoint: median tumor weight change, dose: 125.0 mg/kg/injection, schedule: Q01DX001 (ip), vehicle: saline
[4] = endpoint: median tumor weight change, dose: 250.0 mg/kg/injection, schedule: Q01DX001 (ip), vehicle: saline
[5] = endpoint: median tumor weight change, dose: 1000.0 mg/kg/injection, schedule: Q01DX001 (ip), vehicle: saline

**Q.** How did the T/C (endpoint: median tumor weight change, dose: 16.0 mg/kg/injection, schedule: Q01DX001 (ip), vehicle: water) turn out when `COc1cccc2c1C(=O)c1c(O)c3c(c(O)c1C2=O)CC(O)(/C(C)=N/NC(=O)CCCCC(=O)N/N=C(\C)C1(O)Cc2c(O)c4c(c(O)c2C(OC2CC(N)C(O)C(C)O2)C1)C(=O)c1c(OC)cccc1C4=O)CC3OC1CC(N)C(O)C(C)O1` (centres undefined) was run?
**A.** 113 % of control

**Q.** What about the T/C (endpoint: median tumor weight change, dose: 31.0 mg/kg/injection, schedule: Q01DX001 (ip), vehicle: water) of the same compound?
**A.** 36 % of control

**Q.** For `O=C(O)O`, which T/C [1] is on record?
**A.** 104 % of control

**Q.** And the T/C (endpoint: median tumor weight (est.), dose: 400.0 mg/kg/injection, schedule: Q07DX005 (ip), vehicle: saline)?
**A.** 72 % of control and 55 % of control

**Q.** `C=CC(C)NC(=S)NNC(=S)NC` (centres undefined) was tested. Which T/C (endpoint: median tumor weight change, dose: 62.5 mg/kg/injection, schedule: Q01DX001 (ip), vehicle: saline + alcohol) did it give?
**A.** 155 % of control

**Q.** What about the T/C (endpoint: median tumor weight change, dose: 125.0 mg/kg/injection, schedule: Q01DX001 (ip), vehicle: saline + alcohol) of the same compound?
**A.** 164 % of control

**Q.** And the T/C (endpoint: median tumor weight change, dose: 250.0 mg/kg/injection, schedule: Q01DX001 (ip), vehicle: saline + alcohol)?
**A.** 119 % of control

**Q.** What about the T/C (endpoint: median tumor weight change, dose: 500.0 mg/kg/injection, schedule: Q01DX001 (ip), vehicle: saline + alcohol) of the same compound?
**A.** 82 % of control

**Q.** `CC(=O)Nc1ccc(Nc2ccc(C(=C3C=CC(=[N+](C)CCC#N)C=C3)c3ccc(N(C)CCC#N)cc3)cc2)cc1` was tested. Which T/C [2] did it give?
**A.** 67 % of control

**Q.** What does the source list for `C[C@H](N)C(=O)N[C@@H]1[C@H]2C(=C(O)C[C@@H](O)[C@@H]2O)C(=O)O[C@@H]1C`?
**A.** T/C [3]: 101 % of control; T/C [4]: 120 % of control; T/C [5]: 57 % of control; T/C (endpoint: median tumor weight change, dose: 2000.0 mg/kg/injection, schedule: Q01DX001 (ip), vehicle: saline): 86 % of control

**Q.** `O=C1C(O)=C(c2ccccc2)C(=O)C(O)=C1c1ccccc1` was tested. Which T/C (endpoint: median tumor weight change, dose: 31.0 mg/kg/injection, schedule: Q01DX001 (ip), vehicle: saline with Tween-80) did it give?
**A.** 105 % of control

**Q.** What about the T/C (endpoint: median tumor weight change, dose: 62.0 mg/kg/injection, schedule: Q01DX001 (ip), vehicle: saline with Tween-80) of the same compound?
**A.** 58 % of control

**Q.** What about the T/C [2] of the same compound?
**A.** 104 % of control

**Q.** For `N#CC(C#N)=C/C=C/c1cccc([N+](=O)[O-])c1`, which T/C (endpoint: median tumor weight (est.), dose: 3.12 mg/kg/injection, schedule: Q07DX005 (ip), vehicle: Klucel (hydroxypropylcellulose) (HPC)) is on record?
**A.** 122 % of control

**Q.** And the T/C (endpoint: median tumor weight (est.), dose: 6.25 mg/kg/injection, schedule: Q07DX005 (ip), vehicle: Klucel (hydroxypropylcellulose) (HPC))?
**A.** 239 % of control

**Q.** What about the T/C (endpoint: median tumor weight (est.), dose: 12.5 mg/kg/injection, schedule: Q07DX005 (ip), vehicle: Klucel (hydroxypropylcellulose) (HPC)) of the same compound?
**A.** 169 % of control

**Q.** And the T/C (endpoint: median tumor weight (est.), dose: 25.0 mg/kg/injection, schedule: Q07DX005 (ip), vehicle: Klucel (hydroxypropylcellulose) (HPC))?
**A.** 152 % of control

**Q.** With `CC(=O)ON(C(C)=O)c1ccc(C(N)=O)cc1` as the compound, how does the T/C (endpoint: median tumor weight change, dose: 62.5 mg/kg/injection, schedule: Q01DX001 (ip), vehicle: saline with Tween-80) read?
**A.** 68 % of control

**Q.** What about the T/C [2] of the same compound?
**A.** 96 % of control

**Q.** And the T/C (endpoint: median tumor weight change, dose: 250.0 mg/kg/injection, schedule: Q01DX001 (ip), vehicle: saline with Tween-80)?
**A.** 64 % of control

**Q.** For `NC1(C(=O)O)CCCC1`, which T/C (endpoint: mean tumor weight, dose: 5.0 mg/kg/injection, schedule: Q01DX009 (ip), vehicle: saline) is on record?
**A.** 89 % of control

**Q.** And the T/C (endpoint: mean tumor weight, dose: 10.0 mg/kg/injection, schedule: Q01DX009 (ip), vehicle: saline)?
**A.** 30 % of control

**Q.** What about the T/C (endpoint: mean tumor weight, dose: 12.5 mg/kg/injection, schedule: Q07DX005 (ip), vehicle: saline) of the same compound?
**A.** 40 % of control

**Q.** What about the T/C (endpoint: mean tumor weight, dose: 12.5 mg/kg/injection, schedule: Q07DX007 (ip), vehicle: saline) of the same compound?
**A.** 104 % of control

**Q.** And the T/C (endpoint: mean tumor weight, dose: 20.0 mg/kg/injection, schedule: Q01DX009 (ip), vehicle: saline)?
**A.** 5 % of control

**Q.** What about the T/C (endpoint: mean tumor weight, dose: 25.0 mg/kg/injection, schedule: Q07DX004 (ip), vehicle: saline) of the same compound?
**A.** 81 % of control

**Q.** And the T/C (endpoint: mean tumor weight, dose: 25.0 mg/kg/injection, schedule: Q07DX005 (ip), vehicle: saline)?
**A.** 122 % of control

**Q.** What about the T/C (endpoint: mean tumor weight, dose: 25.0 mg/kg/injection, schedule: Q07DX007 (ip), vehicle: saline) of the same compound?
**A.** 123 % of control

**Q.** What about the T/C (endpoint: mean tumor weight, dose: 25.0 mg/kg/injection, schedule: Q07DX008 (ip), vehicle: saline) of the same compound?
**A.** 119 % of control

**Q.** And the T/C (endpoint: mean tumor weight, dose: 50.0 mg/kg/injection, schedule: Q07DX004 (ip), vehicle: saline)?
**A.** 6 % of control

**Q.** And the T/C (endpoint: mean tumor weight, dose: 50.0 mg/kg/injection, schedule: Q07DX005 (ip), vehicle: saline)?
**A.** 9 % of control

**Q.** And the T/C (endpoint: mean tumor weight, dose: 50.0 mg/kg/injection, schedule: Q07DX007 (ip), vehicle: saline)?
**A.** 5 % of control

**Q.** And the T/C (endpoint: mean tumor weight, dose: 50.0 mg/kg/injection, schedule: Q07DX008 (ip), vehicle: saline)?
**A.** 43 % of control

**Q.** What about the T/C (endpoint: median tumor weight (est.), dose: 25.0 mg/kg/injection, schedule: Q07DX005 (ip), vehicle: saline) of the same compound?
**A.** 39 % of control

**Q.** And the T/C [1]?
**A.** 28 % of control

**Q.** `CC1=NNC(=O)C1CCO` (centres undefined) was tested. Which T/C (endpoint: median tumor weight change, dose: 450.0 mg/kg/injection, schedule: Q01DX001 (ip), vehicle: Klucel (hydroxypropylcellulose) (HPC)) did it give?
**A.** 102 % of control

**Q.** What about the T/C (endpoint: median tumor weight change, dose: 900.0 mg/kg/injection, schedule: Q01DX001 (ip), vehicle: Klucel (hydroxypropylcellulose) (HPC)) of the same compound?
**A.** 157 % of control

**Q.** And the T/C (endpoint: median tumor weight change, dose: 1800.0 mg/kg/injection, schedule: Q01DX001 (ip), vehicle: Klucel (hydroxypropylcellulose) (HPC))?
**A.** 189 % of control

**Q.** And the T/C (endpoint: median tumor weight change, dose: 3600.0 mg/kg/injection, schedule: Q01DX001 (ip), vehicle: Klucel (hydroxypropylcellulose) (HPC))?
**A.** 80 % of control

**Q.** How did the T/C [3] turn out when `C=C(NC(=O)C(=C)NC(=O)c1csc(C2=NC3c4csc(n4)C4NC(=O)c5csc(n5)C(C(C)(O)C(C)O)NC(=O)C5CSC(=N5)/C(=C/C)NC(=O)C(C(C)O)NC(=O)c5csc(n5)C3(CC2)NC(=O)C(C)NC(=O)C(=C)NC(=O)C(=C)NC(=O)C(C(C)C)NC2C=Cc3c(C(C)O)cc(nc3C2O)C(=O)OC4C)n1)C(N)=O` (centres undefined) was run?
**A.** 156 % of control

**Q.** And the T/C [4]?
**A.** 106 % of control

**Q.** What about the T/C (endpoint: median tumor weight change, dose: 500.0 mg/kg/injection, schedule: Q01DX001 (ip), vehicle: saline) of the same compound?
**A.** 110 % of control

**Q.** And the T/C [5]?
**A.** 86 % of control

**Q.** Which results are given for `NCCCNCCSP(=O)(O)O`?
**A.** T/C (endpoint: median tumor weight (est.), dose: 25.0 mg/kg/injection, schedule: Q07DX005 (ip), vehicle: saline with Tween-80): 39 % of control; T/C (endpoint: median tumor weight (est.), dose: 50.0 mg/kg/injection, schedule: Q07DX005 (ip), vehicle: saline with Tween-80): 33 % of control; T/C (endpoint: median tumor weight (est.), dose: 100.0 mg/kg/injection, schedule: Q07DX005 (ip), vehicle: saline with Tween-80): 50 % of control; T/C (endpoint: median tumor weight (est.), dose: 200.0 mg/kg/injection, schedule: Q07DX005 (ip), vehicle: saline with Tween-80): 28 % of control; T/C (endpoint: median tumor weight (est.), dose: 400.0 mg/kg/injection, schedule: Q07DX005 (ip), vehicle: saline with Tween-80): 42 % of control

**Q.** What does the source list for `CC[n+]1c(-c2ccccc2)c2cc(N)ccc2c2ccc(N)cc21`?
**A.** T/C (endpoint: median tumor weight (est.), dose: 10.0 mg/kg/injection, schedule: Q07DX005 (ip), vehicle: water): 85 % of control; T/C (endpoint: median tumor weight (est.), dose: 20.0 mg/kg/injection, schedule: Q07DX005 (ip), vehicle: water): 105 % of control

**Q.** Which results are given for `CNC(=O)OCc1c(COC(=O)NC)c(-c2ccc(Cl)c(Cl)c2)n2c1Cc1ccccc1C2`?
**A.** T/C (endpoint: median tumor weight change, dose: 125.0 mg/kg/injection, schedule: Q01DX001 (ip), vehicle: distilled water + Tween-80): 77 % of control; T/C (endpoint: median tumor weight change, dose: 250.0 mg/kg/injection, schedule: Q01DX001 (ip), vehicle: distilled water + Tween-80): 67 % of control; T/C (endpoint: median tumor weight change, dose: 500.0 mg/kg/injection, schedule: Q01DX001 (ip), vehicle: distilled water + Tween-80): -12 % of control; T/C (endpoint: median tumor weight change, dose: 1000.0 mg/kg/injection, schedule: Q01DX001 (ip), vehicle: distilled water + Tween-80): -53 % of control; T/C (endpoint: median tumor weight change, dose: 2000.0 mg/kg/injection, schedule: Q01DX001 (ip), vehicle: distilled water + Tween-80): -71 % of control

**Q.** Which results are given for `CCc1ccc(C2=C(O)C(=O)C(c3ccccc3)=C(O)C2=O)cc1`?
**A.** T/C (endpoint: median tumor weight change, dose: 31.25 mg/kg/injection, schedule: Q01DX001 (ip), vehicle: Klucel (hydroxypropylcellulose) (HPC)): 84 % of control; T/C (endpoint: median tumor weight change, dose: 62.5 mg/kg/injection, schedule: Q01DX001 (ip), vehicle: Klucel (hydroxypropylcellulose) (HPC)): 106 % of control; T/C (endpoint: median tumor weight change, dose: 125.0 mg/kg/injection, schedule: Q01DX001 (ip), vehicle: Klucel (hydroxypropylcellulose) (HPC)): 59 % of control

**Q.** With `CCN1/C(=C/C=C/C=C\C=C\c2sc3ccc4ccccc4c3[n+]2CC)Sc2ccc3ccccc3c21` as the compound, how does the T/C (endpoint: median tumor weight change, dose: 25.0 mg/kg/injection, schedule: Q01DX001 (ip), vehicle: saline with Tween-80) read?
**A.** 70 % of control and 76 % of control

**Q.** And the T/C (endpoint: median tumor weight change, dose: 100.0 mg/kg/injection, schedule: Q01DX001 (ip), vehicle: saline with Tween-80)?
**A.** 32 % of control and 53 % of control

**Q.** What about the T/C (endpoint: median tumor weight change, dose: 200.0 mg/kg/injection, schedule: Q01DX001 (ip), vehicle: saline with Tween-80) of the same compound?
**A.** 69 % of control
